Reference: US8278345B2, “Inhibitors of glutaminyl cyclase” (Probiodrug AG, priority 2006, dated 2012)

These compounds were tested against hQC (Homo sapiens, UniProt Q16769) (assay: Inhibitor assay for glutaminyl cyclase activity (fluorometric, H-Gln-βNA / H-Gln-AMC)). Settings: compound from preparative synthesis, purified.
Assay type: biochemical
How it was run: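 Coupled fluorometric assay at 30 °C with pyroglutamyl aminopeptidase, in Tris/HCl pH 8.0 with EDTA, substrate H-Gln-βNA (0.2 mM; ex/em 320/410 nm) or H-Gln-AMC (ex/em 380/460 nm), initiated by QC. Screening: 4 mM inhibitor, substrate at 1 KM; Ki from progress curves fitted to competitive inhibition.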

hQC, sequence (Q16769 29-361): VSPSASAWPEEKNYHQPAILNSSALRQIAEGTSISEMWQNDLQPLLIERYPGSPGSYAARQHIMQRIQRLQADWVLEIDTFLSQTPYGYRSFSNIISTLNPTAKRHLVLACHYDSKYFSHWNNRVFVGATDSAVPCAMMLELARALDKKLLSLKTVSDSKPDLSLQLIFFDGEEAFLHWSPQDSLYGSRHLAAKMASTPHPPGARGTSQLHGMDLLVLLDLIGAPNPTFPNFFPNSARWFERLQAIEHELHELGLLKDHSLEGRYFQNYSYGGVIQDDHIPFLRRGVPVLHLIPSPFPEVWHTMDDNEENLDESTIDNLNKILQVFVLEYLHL

| Ki | Compound |
| --- | --- |
| 55.8 nM | CC1=C(O)C(=O)N(c2ccc3nc[nH]c3c2)C1c1c(F)ccc(F)c1Cl (stereo not drawn) [Compound 472, 1-(1H-benzo[d]imidazol-6-yl)-5-(2-chloro-3,6-difluorophenyl)-3-hydroxy-4-methyl-1H-pyrrol-2(5H)-one] |

Same assay, conditions: compound from preparative synthesis, purified; read-out: IC50 hQC

| Compound | IC50 |
| --- | --- |
| CCCCCC1=C(O)C(=O)N(CCCn2ccnc2)C1c1cccc(O)c1 (stereo not drawn) [Compound 219, 3-Hydroxy-5-(3-hydroxy-phenyl)-1-(3-imidazol-1-yl-propyl)-4-pentyl-1,5-dihydro-pyrrol-2-one] | 698 nM |
| O=C1C(O)=C(c2ccccc2)C(c2ccc3[nH]ccc3c2)N1CCCn1ccnc1 (stereo not drawn) [Compound 85, 3-Hydroxy-1-(3-imidazol-1-yl-propyl)-5-(1H-indol-5-yl)-4-phenyl-1,5-dihydro-pyrrol-2-one] | 640 nM |

Continued, values first:

| IC50 | Compound |
| --- | --- |
| 1670 nM | O=C1C(O)=C(c2ccccc2)C(C2CCC=CO2)N1CCCn1ccnc1 (stereo not drawn) [Compound 93, 5-(3,4-Dihydro-2H-pyran-2-yl)-3-hydroxy-1-(3-imidazol-1-yl-propyl)-4-phenyl-1,5-dihydro-pyrrol-2-one] |
| 134 nM | O=C1C(O)=C(c2c[nH]c3ccccc23)C(c2cccc(Cl)c2)N1CCCn1ccnc1 (stereo not drawn) [Compound 143, 5-(3-Chloro-phenyl)-3-hydroxy-1-(3-imidazol-1-yl-propyl)-4-(1H-indol-3-yl)-1,5-dihydro-pyrrol-2-one] |

Same assay, conditions: read-out: IC50

| Compound | IC50 |
| --- | --- |
| CC1=C(O)C(=O)N(c2ccc3[nH]cnc3c2)C1c1nccs1 (stereo not drawn) [Compound 326, 1-(1H-Benzoimidazol-5-yl)-3-hydroxy-4-methyl-5-thiazol-2-yl-1,5-dihydro-pyrrol-2-one] | 3280 nM |
| Cc1ccc2c(C3C(c4c[nH]c5ccccc45)=C(O)C(=O)N3c3ccc4[nH]cnc4c3)c[nH]c2c1 (stereo not drawn) [Compound 320, 1-(1H-Benzoimidazol-5-yl)-3-hydroxy-4-(1H-indol-3-yl)-5-(6-methyl-1H-indol-3-yl)-1,5-dihydro-pyrrol-2-one] | 9490 nM |
| O=C(C1=C(O)C(=O)N(c2ccc3[nH]cnc3c2)C1c1cccc2cccnc12)C1CC1 (stereo not drawn) [Compound 443, 1-(1H-Benzoimidazol-5-yl)-4-cyclopropanecarbonyl-3-hydroxy-5-quinolin-8-yl-1,5-dihydro-pyrrol-2-one] | 4630 nM |
| CCC1=C(O)C(=O)N(CCCn2ccnc2)C1c1ccc(CO)o1 (stereo not drawn) [Compound 234, 4-Ethyl-3-hydroxy-5-(5-hydroxymethyl-furan-2-yl)-1-(3-imidazol-1-yl-propyl)-1,5-dihydro-pyrrol-2-one] | 1300 nM |
| CC(C)(C)C(=O)C1=C(O)C(=O)N(c2ccc3[nH]cnc3c2)C1c1cc2ccccc2nc1Cl (stereo not drawn) [Compound 392, 1-(1H-Benzoimidazol-5-yl)-5-(2-chloro-quinolin-3-yl)-4-(2,2-dimethyl-propionyl)-3-hydroxy-1,5-dihydro-pyrrol-2-one] | 4450 nM |
| CCCCCC1=C(O)C(=O)N(CCCn2ccnc2)C1c1ncc[nH]1 (stereo not drawn) [Compound 205, 3-Hydroxy-5-(1H-imidazol-2-yl)-1-(3-imidazol-1-yl-propyl)-4-pentyl-1,5-dihydro-pyrrol-2-one] | 2200 nM |
| Cc1ccc(C2C(C(=O)CC(C)C)=C(O)C(=O)N2c2ccc3[nH]cnc3c2)o1 (stereo not drawn) [Compound 289, 1-(1H-Benzoimidazol-5-yl)-3-hydroxy-4-(3-methyl-butyryl)-5-(5-methyl-furan-2-yl)-1,5-dihydro-pyrrol-2-one] | 760 nM |
| Cc1ccc(C2C(c3ccccc3)=C(O)C(=O)N2CCCn2ccnc2)cc1C (stereo not drawn) [Compound 88, 5-(3,4-Dimethyl-phenyl)-3-hydroxy-1-(3-imidazol-1-yl-propyl)-4-phenyl-1,5-dihydro-pyrrol-2-one] | 1300 nM |
| CCCCCC1=C(O)C(=O)N(CCCn2ccnc2)C1c1cccc(O)c1 (stereo not drawn) [Compound 219, 3-Hydroxy-5-(3-hydroxy-phenyl)-1-(3-imidazol-1-yl-propyl)-4-pentyl-1,5-dihydro-pyrrol-2-one] | 40 nM |
| CC(=O)C1=C(O)C(=O)N(c2ccc3[nH]cnc3c2)C1c1ccc(C)o1 (stereo not drawn) [Compound 415, 4-Acetyl-1-(1H-benzoimidazol-5-yl)-3-hydroxy-5-(5-methyl-furan-2-yl)-1,5-dihydro-pyrrol-2-one] | 1390 nM |
| CC(C)C1=C(O)C(=O)N(c2ccc3[nH]cnc3c2)C1C1COC(C)(C)O1 (stereo not drawn) [Compound 300, 1-(1H-Benzoimidazol-5-yl)-5-(2,2-dimethyl-[1,3]dioxolan-4-yl)-3-hydroxy-4-isopropyl-1,5-dihydro-pyrrol-2-one] | 4 nM |
| COc1ccc(C2C(C(C)C)=C(O)C(=O)N2CCCn2ccnc2)cc1 (stereo not drawn) [Compound 59, 3-Hydroxy-1-(3-imidazol-1-yl-propyl)-4-isopropyl-5-(4-methoxy-phenyl)-1,5-dihydro-pyrrol-2-one] | 400 nM |
| O=C1C(O)=C(c2ccccc2)C(c2ccc3[nH]ccc3c2)N1CCCn1ccnc1 (stereo not drawn) [Compound 85, 3-Hydroxy-1-(3-imidazol-1-yl-propyl)-5-(1H-indol-5-yl)-4-phenyl-1,5-dihydro-pyrrol-2-one] | 40 nM |
| CC(=O)C1=C(O)C(=O)N(c2ccc3[nH]cnc3c2)C1c1cc(Br)c(O)c(Br)c1 (stereo not drawn) [Compound 414, 4-Acetyl-1-(1H-benzoimidazol-5-yl)-5-(3,5-dibromo-4-hydroxy-phenyl)-3-hydroxy-1,5-dihydro-pyrrol-2-one] | 2380 nM |
| Cc1ccc(C2C(c3ccccc3)=C(O)C(=O)N2CCCn2ccnc2)o1 (stereo not drawn) [Compound 84, 3-Hydroxy-1-(3-imidazol-1-yl-propyl)-5-(5-methyl-furan-2-yl)-4-phenyl-1,5-dihydro-pyrrol-2-one] | 2200 nM |
| CC(=O)C1=C(O)C(=O)N(c2ccc3[nH]cnc3c2)C1c1cc(F)cc(F)c1F (stereo not drawn) [Compound 261, 4-Acetyl-1-(1H-benzoimidazol-5-yl)-3-hydroxy-5-(2,3,5-trifluoro-phenyl)-1,5-dihydro-pyrrol-2-one] | 310 nM |
| CC(=O)C1=C(O)C(=O)N(c2ccc3[nH]cnc3c2)C1C1CC1 (stereo not drawn) [Compound 266, 4-Acetyl-1-(1H-benzoimidazol-5-yl)-5-cyclopropyl-3-hydroxy-1,5-dihydro-pyrrol-2-one] | 2290 nM |
| CC1=C(O)C(=O)N(CCCn2ccnc2)C1c1cc[nH]n1 (stereo not drawn) [Compound 23, 3-Hydroxy-1-(3-imidazol-1-yl-propyl)-4-methyl-5-(1H-pyrazol-3-yl)-1,5-dihydro-pyrrol-2-one] | 7600 nM |
| CC1=C(O)C(=O)N(c2ccc3[nH]cnc3c2)C1c1c[nH]c2cc(C)ccc12 (stereo not drawn) [Compound 436, 1-(1H-Benzoimidazol-5-yl)-3-hydroxy-4-methyl-5-(6-methyl-1H-indol-3-yl)-1,5-dihydro-pyrrol-2-one] | 490 nM |
| CCCCCC1=C(O)C(=O)N(CCCn2ccnc2)C1c1ccccc1O (stereo not drawn) [Compound 194, 3-Hydroxy-5-(2-hydroxy-phenyl)-1-(3-imidazol-1-yl-propyl)-4-pentyl-1,5-dihydro-pyrrol-2-one] | 40 nM |
| CCCCCC1=C(O)C(=O)N(CCCn2ccnc2)C1CC (stereo not drawn) [Compound 215, 5-Ethyl-3-hydroxy-1-(3-imidazol-1-yl-propyl)-4-pentyl-1,5-dihydro-pyrrol-2-one] | 1300 nM |
| CC1=C(O)C(=O)N(c2ccc3nc[nH]c3c2)C1c1c(F)ccc(F)c1Cl (stereo not drawn) [Compound 472, 1-(1H-benzo[d]imidazol-6-yl)-5-(2-chloro-3,6-difluorophenyl)-3-hydroxy-4-methyl-1H-pyrrol-2(5H)-one] | 470 nM |

The next lines start with the values.

| IC50 | Compound |
| --- | --- |
| 2200 nM | CC1=C(O)C(=O)N(CCCn2ccnc2)C1c1ncc[nH]1 (stereo not drawn) [Compound 40, 3-Hydroxy-5-(1H-imidazol-2-yl)-1-(3-imidazol-1-yl-propyl)-4-methyl-1,5-dihydro-pyrrol-2-one] |
| 400 nM | O=C1C(O)=C(c2ccc(O)cc2)C(C(F)(F)F)N1CCCn1ccnc1 (stereo not drawn) [Compound 166, 3-Hydroxy-4-(4-hydroxy-phenyl)-1-(3-imidazol-1-yl-propyl)-5-trifluoromethyl-1,5-dihydro-pyrrol-2-one] |
| 760 nM | Cc1cccc(C2C(c3c[nH]c4ccccc34)=C(O)C(=O)N2c2ccc3[nH]cnc3c2)n1 (stereo not drawn) [Compound 385, 1-(1H-Benzoimidazol-5-yl)-3-hydroxy-4-(1H-indol-3-yl)-5-(6-methyl-pyridin-2-yl)-1,5-dihydro-pyrrol-2-one] |
| 40 nM | Cc1ccc2c(C3C(c4ccccc4)=C(O)C(=O)N3CCCn3ccnc3)c[nH]c2c1 (stereo not drawn) [Compound 95, 3-Hydroxy-1-(3-imidazol-1-yl-propyl)-5-(6-methyl-1H-indol-3-yl)-4-phenyl-1,5-dihydro-pyrrol-2-one] |
| 40 nM | CCCCCC1=C(O)C(=O)N(CCCn2ccnc2)C1c1ccc2[nH]ccc2c1 (stereo not drawn) [Compound 192, 3-Hydroxy-1-(3-imidazol-1-yl-propyl)-5-(1H-indol-5-yl)-4-pentyl-1,5-dihydro-pyrrol-2-one] |
| 400 nM | CCCC1C(c2c[nH]c3ccccc23)=C(O)C(=O)N1CCCn1ccnc1 (stereo not drawn) [Compound 115, 3-Hydroxy-1-(3-imidazol-1-yl-propyl)-4-(1H-indol-3-yl)-5-propyl-1,5-dihydro-pyrrol-2-one] |
| 4720 nM | CCCC(=O)C1=C(O)C(=O)N(c2ccc3[nH]cnc3c2)C1 [Compound 362, 1-(1H-Benzoimidazol-5-yl)-4-butyryl-3-hydroxy-1,5-dihydro-pyrrol-2-one] |
| 40 nM | O=C1C(O)=C(c2ccccc2)C(C2CCC=CO2)N1CCCn1ccnc1 (stereo not drawn) [Compound 93, 5-(3,4-Dihydro-2H-pyran-2-yl)-3-hydroxy-1-(3-imidazol-1-yl-propyl)-4-phenyl-1,5-dihydro-pyrrol-2-one] |
| 3100 nM | CC(C)C1=C(O)C(=O)N(CCCn2ccnc2)C1c1ccc(CO)o1 (stereo not drawn) [Compound 63, 3-Hydroxy-5-(5-hydroxymethyl-furan-2-yl)-1-(3-imidazol-1-yl-propyl)-4-isopropyl-1,5-dihydro-pyrrol-2-one] |
| 400 nM | O=C1C(O)=C(c2ccc(O)cc2)C(c2ccccn2)N1CCCn1ccnc1 (stereo not drawn) [Compound 171, 3-Hydroxy-4-(4-hydroxy-phenyl)-1-(3-imidazol-1-yl-propyl)-5-pyridin-2-yl-1,5-dihydro-pyrrol-2-one] |
| 4900 nM | CC(C)C1=C(O)C(=O)N(CCCn2ccnc2)C1c1ccncc1 (stereo not drawn) [Compound 70, 3-Hydroxy-1-(3-imidazol-1-yl-propyl)-4-isopropyl-5-pyridin-4-yl-1,5-dihydro-pyrrol-2-one] |
| 40 nM | O=C1C(O)=C(c2c[nH]c3ccccc23)C(c2cccc(Cl)c2)N1CCCn1ccnc1 (stereo not drawn) [Compound 143, 5-(3-Chloro-phenyl)-3-hydroxy-1-(3-imidazol-1-yl-propyl)-4-(1H-indol-3-yl)-1,5-dihydro-pyrrol-2-one] |
| 2200 nM | CCCC(=O)C1=C(O)C(=O)N(c2ccc3[nH]cnc3c2)C1C1CC1 (stereo not drawn) [Compound 449, 1-(1H-Benzoimidazol-5-yl)-4-butyryl-5-cyclopropyl-3-hydroxy-1,5-dihydro-pyrrol-2-one] |
| 400 nM | CC1=C(O)C(=O)N(CCCn2ccnc2)C1c1cccc(Cl)c1 (stereo not drawn) [Compound 50, 5-(3-Chloro-phenyl)-3-hydroxy-1-(3-imidazol-1-yl-propyl)-4-methyl-1,5-dihydro-pyrrol-2-one] |
| 4810 nM | CC(=O)C1=C(O)C(=O)N(c2ccc3[nH]cnc3c2)C1C1CCOC1 (stereo not drawn) [Compound 314, 4-Acetyl-1-(1H-benzoimidazol-5-yl)-3-hydroxy-5-(tetrahydro-furan-3-yl)-1,5-dihydro-pyrrol-2-one] |
